Laboratory results taken from ChEMBL document CHEMBL1201862, “PubChem BioAssay data set” (2004).
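Assay format: 96-well plates, 48-hour exposure. The concentration for 50% growth inhibition is given as GI50.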 The source made the active and inactive calls. No stated cut-off is given here; in the data, active = GI50 up to about 1.1 µM and inactive = higher.

Key:
Experiment in all cases: NCI tumour cell line growth inhibition, 48 h
HCT-15 = system: HCT-15
ACHN = system: ACHN
A498 = system: A498
786-0 = system: 786-0
U-251 = system: U-251
SK-MEL-5 = system: SK-MEL-5
TK-10 = system: TK-10
SN12C = system: SN12C
OVCAR-8 = system: OVCAR-8
NCI-H226 = system: NCI-H226
UO-31 = system: UO-31
MOLT-4 = system: MOLT-4
SR = system: SR
NCI-H23 = system: NCI-H23
UACC-62 = system: UACC-62
HCC 2998 = system: HCC 2998
RPMI-8226 = system: RPMI-8226
NCI-H460 = system: NCI-H460
MCF7 = system: MCF7
MDA-MB-435 = system: MDA-MB-435

Row | SMILES | GI50 (HCT-15) [µM] | GI50 (ACHN) | GI50 (A498) | GI50 (786-0) | GI50 (U-251) | GI50 (SK-MEL-5) | GI50 (TK-10) | GI50 (SN12C) | GI50 (OVCAR-8) | GI50 (NCI-H226) | GI50 (UO-31) | GI50 (MOLT-4) | GI50 (SR) | GI50 (NCI-H23) | GI50 (UACC-62) | GI50 (HCC 2998) | GI50 (RPMI-8226) | GI50 (NCI-H460) | GI50 (MCF7) | GI50 (MDA-MB-435)
1 | Cc1ccccc1NC(=O)/C(=N/NC(=O)CC#N)C1C(=O)N(c2ccccc2)N=C1N (stereo not drawn) | > 100 | 60.1 µM (inactive) | > 100 µM (inactive) | > 100 µM (inactive) | > 100 µM (inactive) | > 100 µM (inactive) | > 100 µM (inactive) | > 100 µM (inactive) | > 100 µM (inactive) | > 100 µM (inactive) | > 100 µM (inactive) | 72.9 µM (inactive) | 52.1 µM (inactive) | > 100 µM (inactive) | > 100 µM (inactive) | > 100 µM (inactive) | 96.2 µM (inactive) | > 100 µM (inactive) | – | –
2 | O=C1CC(C(=O)N2CCCCC2)n2c(=O)n(-c3ccccc3)c(=O)n2C1 (stereo not drawn) | > 100 | > 100 µM (inactive) | – | > 100 µM (inactive) | – | > 100 µM (inactive) | > 100 µM (inactive) | – | > 100 µM (inactive) | > 100 µM (inactive) | > 100 µM (inactive) | – | – | > 100 µM (inactive) | > 100 µM (inactive) | > 100 µM (inactive) | – | > 100 µM (inactive) | > 100 µM (inactive) | –
3 | O=c1ccn(C2OC(CO)C(P(=O)(O)O)C2O)c(=O)[nH]1 (stereo not drawn) | > 100 | > 100 µM (inactive) | > 100 µM (inactive) | > 100 µM (inactive) | > 100 µM (inactive) | > 100 µM (inactive) | > 100 µM (inactive) | > 100 µM (inactive) | > 100 µM (inactive) | > 100 µM (inactive) | > 100 µM (inactive) | > 100 µM (inactive) | > 100 µM (inactive) | > 100 µM (inactive) | > 100 µM (inactive) | > 100 µM (inactive) | > 100 µM (inactive) | > 100 µM (inactive) | > 100 µM (inactive) | –
4 | C=CCOc1ccc(C2c3c(n[nH]c3O)CC(O)(OCC)C2C(=O)OCC)cc1OC (stereo not drawn) | > 100 | > 100 µM (inactive) | > 100 µM (inactive) | > 100 µM (inactive) | > 100 µM (inactive) | > 100 µM (inactive) | > 100 µM (inactive) | > 100 µM (inactive) | > 100 µM (inactive) | – | > 100 µM (inactive) | > 100 µM (inactive) | – | > 100 µM (inactive) | 0.1 µM (active) | > 100 µM (inactive) | > 100 µM (inactive) | > 100 µM (inactive) | > 100 µM (inactive) | > 100 µM (inactive)
